The results in this text go back to PubChem BioAssay AID330 (DTP/NCI, 2004).

The experiment relates to P388 leukemia ip, CD2F1 mice, survival T/C. Nature of the experiment: NCI In Vivo Anticancer Drug Screen. Data for tumor model P388 Leukemia (intraperitoneal) in CD2F1 (CDF1) mice. The settings on record: endpoint: median survival time, higher = longer survival. The method, boiled down:
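Mice carrying the transplanted tumor received test compound or vehicle. Survival was recorded in each group, and the value is the treated-group measurement divided by that of the vehicle-treated control group.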

Setting [1] is: dose: 50.0 mg/kg/injection, schedule: Q01DX009 (ip), vehicle: saline with Tween-80.
The mark [2] stands for this setting: dose: 100.0 mg/kg/injection, schedule: Q01DX009 (ip), vehicle: saline with Tween-80.
Where [3] appears, read: dose: 200.0 mg/kg/injection, schedule: Q01DX009 (ip), vehicle: saline with Tween-80.
Setting [4] is: dose: 60.0 mg/kg/injection, schedule: Q01DX005 (ip), vehicle: saline with Tween-80.
The mark [5] stands for this setting: dose: 120.0 mg/kg/injection, schedule: Q01DX005 (ip), vehicle: saline with Tween-80.
[6] abbreviates: dose: 240.0 mg/kg/injection, schedule: Q01DX005 (ip), vehicle: saline with Tween-80.
The mark [7] stands for this setting: dose: 60.0 mg/kg/injection, schedule: Q01DX005 (ip), vehicle: Klucel (hydroxypropylcellulose) (HPC).
The mark [8] stands for this setting: dose: 120.0 mg/kg/injection, schedule: Q01DX005 (ip), vehicle: Klucel (hydroxypropylcellulose) (HPC).
The mark [9] stands for this setting: dose: 100.0 mg/kg/injection, schedule: Q01DX009 (ip), vehicle: saline.
The mark [10] stands for this setting: dose: 200.0 mg/kg/injection, schedule: Q01DX009 (ip), vehicle: saline.
[11] abbreviates: dose: 50.0 mg/kg/injection, schedule: Q01DX009 (ip), vehicle: saline.
The mark [12] stands for this setting: dose: 50.0 mg/kg/injection, schedule: Q04DX003 (ip), vehicle: saline with Tween-80.
The mark [13] stands for this setting: dose: 100.0 mg/kg/injection, schedule: Q04DX003 (ip), vehicle: saline with Tween-80.
Where [14] appears, read: dose: 50.0 mg/kg/injection, schedule: Q01DX009 (ip), vehicle: Klucel (hydroxypropylcellulose) (HPC).
[15] abbreviates: dose: 100.0 mg/kg/injection, schedule: Q01DX009 (ip), vehicle: Klucel (hydroxypropylcellulose) (HPC).
The mark [16] stands for this setting: dose: 200.0 mg/kg/injection, schedule: Q01DX009 (ip), vehicle: Klucel (hydroxypropylcellulose) (HPC).
The mark [17] stands for this setting: dose: 60.0 mg/kg/injection, schedule: Q01DX005 (ip), vehicle: saline.
Where [18] appears, read: dose: 120.0 mg/kg/injection, schedule: Q01DX005 (ip), vehicle: saline.
[19] abbreviates: dose: 240.0 mg/kg/injection, schedule: Q01DX005 (ip), vehicle: saline.

Values joined by “and” are separate entries in the source; they are usually repeats but may differ in a detail not shown here. Equal values may be shown once. Inconclusive results and toxic doses are left out.

Consider `COC12[C@@H]3N[C@@H]3CN1C1=C(C(=O)C(NCCSSCCNC3=C(C)C(=O)C4=C(C3=O)C(COC(N)=O)[C@]3(OC)C5N[C@@H]5CN43)=C(C)C1=O)[C@@H]2COC(N)=O` (some centres not stated), for which the T/C was 157 % of control (dose: 3.12 mg/kg/injection, schedule: Q01DX001 (ip), vehicle: DMSO); 161 % of control (dose: 6.25 mg/kg/injection, schedule: Q01DX001 (ip), vehicle: DMSO); 177 % of control (dose: 12.5 mg/kg/injection, schedule: Q01DX001 (ip), vehicle: DMSO); 233 % of control (dose: 25.0 mg/kg/injection, schedule: Q01DX001 (ip), vehicle: DMSO).
`CCCCCCC(=O)/C=C/c1ccc(O)cc1`: the T/C under setting [1] was 105 % of control, the T/C under setting [2] is 105 % of control and the T/C under setting [3] is 105 % of control.
With `CS(=O)(=O)C(c1nc2nnc(NC(=O)Nc3ccc(Cl)cc3)n2[nH]c1=O)c1nc2nnc(NC(=O)Nc3ccc(Cl)cc3)n2[nH]c1=O`, the T/C is 104 % of control under setting [4], 100 % of control under setting [5] and 98 % of control under setting [6].
Regarding `CC(=NC(C)(C)C)N1CCOCC1`, the T/C is 101 % of control (dose: 50.0 mg/kg/injection, schedule: Q01DX009 (ip), vehicle: saline + Tween-80 + alcohol); 100 % of control (dose: 100.0 mg/kg/injection, schedule: Q01DX009 (ip), vehicle: saline + Tween-80 + alcohol); 88 % of control (dose: 200.0 mg/kg/injection, schedule: Q01DX009 (ip), vehicle: saline + Tween-80 + alcohol).
As to `COc1cc2c(cc1OC)C13CCCC4(OCCO4)C1=CC2(C)O3` (configuration not stated), the T/C reads like this: under setting [1], 101 % of control; under setting [2], 94 % of control; under setting [3], 93 % of control.
Regarding `C=C1C(=O)OC2/C=C(\C)CC/C=C(/C=O)C(O)C(OC(=O)C(C)C)C12` (configuration not stated), the T/C is 112 % of control (dose: 5.0 mg/kg/injection, schedule: Q01DX009 (ip), vehicle: other) and 94 % of control (dose: 20.0 mg/kg/injection, schedule: Q01DX009 (ip), vehicle: other).
With `CCOC(=O)C1=C(O)C2(CC(C)=C(C)CS2=O)SC1=Nc1ccccc1` (configuration not stated), the T/C under setting [4] is 96 % of control, the T/C under setting [5] was 107 % of control and the T/C under setting [6] was 104 % of control.
For `c1ccc2c(SC3CCC4CC5CC4C3C5)nccc2c1` (configuration not stated) the same measures were 91 % of control, 94 % of control and 91 % of control.
For `OCC1CSC(=S)N1Cc1ccccc1` (configuration not stated), the T/C by setting is: under setting [7], 97 % of control; under setting [8], 100 % of control; (dose: 240.0 mg/kg/injection, schedule: Q01DX005 (ip), vehicle: Klucel (hydroxypropylcellulose) (HPC)) 107 % of control.
In the case of `COc1cc2c3cc1Oc1c(OC)c(OC)cc4c1[C@@H](Cc1ccc(O)c(c1)Oc1ccc(cc1)C[C@@H]3N(C)CC2)N(C)CC4`, the T/C reads like this: under setting [7], 102 % of control and 106 % of control; under setting [8], 118 % of control and 113 % of control.
For `COc1c[nH]c(CO)cc1=O`, the T/C is 101 % of control and 104 % of control under setting [9]; 108 % of control and 114 % of control under setting [10]; 99 % of control and 114 % of control (dose: 400.0 mg/kg/injection, schedule: Q01DX009 (ip), vehicle: saline).
For the compound `Nc1cc(=O)[nH]c2ncnn12`, the T/C runs as follows: (dose: 25.0 mg/kg/injection, schedule: Q01DX009 (ip), vehicle: saline) 103 % of control; under setting [11], 109 % of control; under setting [9], 102 % of control; under setting [10], 99 % of control.
Take `Oc1cc2c3c(c1)-c1c(ccc(O)c1O)CC3NCC2` (configuration not stated): the T/C was 99 % of control (dose: 3.13 mg/kg/injection, schedule: Q04DX003 (ip), vehicle: DMSO); 103 % of control (dose: 6.25 mg/kg/injection, schedule: Q04DX003 (ip), vehicle: DMSO); 109 % of control (dose: 12.5 mg/kg/injection, schedule: Q04DX003 (ip), vehicle: DMSO); 110 % of control (dose: 25.0 mg/kg/injection, schedule: Q04DX003 (ip), vehicle: DMSO); 117 % of control (dose: 50.0 mg/kg/injection, schedule: Q04DX003 (ip), vehicle: DMSO).
As for `CCC(C)C(=O)Nc1ccccc1-c1ccccc1` (configuration not stated), the T/C (dose: 12.5 mg/kg/injection, schedule: Q01DX009 (ip), vehicle: saline with Tween-80) was 99 % of control; the T/C (dose: 25.0 mg/kg/injection, schedule: Q01DX009 (ip), vehicle: saline with Tween-80) was 100 % of control; the T/C under setting [1] was 103 % of control; the T/C under setting [11] is 91 % of control.
On to `Cc1ccc2c(c1)C1(SC(C)C(=O)N1c1ccc(Cl)cc1)C(=O)N2CN1CCOCC1` (configuration not stated), for which the T/C is 113 % of control under setting [4], 100 % of control under setting [5] and 121 % of control under setting [6].
As for `O=[N+]([O-])c1cc2[nH]cnc2c([N+](=O)[O-])c1N1CCCCC1`, the T/C (dose: 25.0 mg/kg/injection, schedule: Q04DX003 (ip), vehicle: saline with Tween-80) is 92 % of control; the T/C under setting [12] is 92 % of control; the T/C under setting [13] was 100 % of control.
Consider `Oc1cc2c(cc1C(c1ccc(Cl)cc1)N1CCN(C(c3ccc(Cl)cc3)c3cc4c(cc3O)OCO4)CC1)OCO2` (configuration not stated), for which the T/C was 89 % of control under setting [7] and 88 % of control under setting [8].
With `CSCCC(NC(C)=O)C(C)=O` (configuration not stated), the T/C is 110 % of control under setting [11], 109 % of control under setting [9] and 105 % of control under setting [10].
`CC1(C)NNC(=S)NN1`: the T/C runs as follows: (dose: 7.5 mg/kg/injection, schedule: Q01DX005 (ip), vehicle: saline with Tween-80) 103 % of control; (dose: 15.0 mg/kg/injection, schedule: Q01DX005 (ip), vehicle: saline with Tween-80) 104 % of control.
With `Cc1cc(N(CCOS(C)(=O)=O)CCOS(C)(=O)=O)ccc1C=O`, the T/C was 150 % of control and 176 % of control (dose: 3.12 mg/kg/injection, schedule: Q01DX009 (ip), vehicle: Klucel (hydroxypropylcellulose) (HPC)); 174 % of control and 196 % of control (dose: 6.25 mg/kg/injection, schedule: Q01DX009 (ip), vehicle: Klucel (hydroxypropylcellulose) (HPC)); 110 % of control and 213 % of control and 217 % of control (dose: 12.5 mg/kg/injection, schedule: Q01DX009 (ip), vehicle: Klucel (hydroxypropylcellulose) (HPC)).
`CCCCCCCCC(=O)C(=O)c1ccc(O)c(C)c1O`: the T/C is 112 % of control under setting [14], 109 % of control under setting [15] and 110 % of control under setting [16].
With `CS(=O)(=O)C(c1nc2n(c1O)C(=N)N=N2)c1nc2n(c1O)C(=N)N=N2` (configuration not stated), the T/C by setting is: under setting [17], 99 % of control; under setting [18], 100 % of control; under setting [19], 105 % of control.
`CC(C)(C)c1cc(C(C)(C)O)c2c(c1)C(C)(C)OS2`: the T/C is 99 % of control under setting [12]; 106 % of control under setting [13]; 100 % of control (dose: 200.0 mg/kg/injection, schedule: Q04DX003 (ip), vehicle: saline with Tween-80).
Regarding `COC(=O)C1CC(OC(C)=O)C2OC(C)(C)OC2C1OC(C)=O` (configuration not stated), the T/C under setting [14] was 100 % of control, the T/C under setting [15] is 99 % of control and the T/C under setting [16] was 100 % of control.
As for `NS(=O)(=O)c1cccc(NC(=O)c2ccco2)c1`, the T/C is 102 % of control under setting [14], 101 % of control under setting [15] and 94 % of control under setting [16].
Turning to `CNC(=O)OCc1c(COC(=O)NC)c(-c2cccc(F)c2F)n2c1CCC2`, the T/C (dose: 12.5 mg/kg/injection, schedule: Q01DX009 (ip), vehicle: distilled water + Tween-80) is 171 % of control; the T/C (dose: 25.0 mg/kg/injection, schedule: Q01DX009 (ip), vehicle: distilled water + Tween-80) was 156 % of control and 159 % of control.
`CC(=O)Nc1ccc2c3c(cccc13)CC2`: the T/C was 101 % of control under setting [14], 106 % of control under setting [15] and 108 % of control under setting [16].
Turning to `CCOCc1cn[nH]n1`, the T/C reads like this: under setting [17], 100 % of control; under setting [18], 100 % of control; under setting [19], 104 % of control.
Regarding `O=C(Nc1ccccc1Cl)OCC(CCl)(CCl)CCl`, the T/C under setting [14] is 100 % of control, the T/C under setting [15] was 106 % of control and the T/C under setting [16] was 95 % of control.
